Where two headings read alike, the source gives them in different places.
Assays:
[1] = test system: native NMDA receptors of rat CA1 hippocampal pyramidal neurons; experiment: Whole-cell patch-clamp of NMDA-induced currents in isolated CA1 pyramidal neurons; format: cell-based; settings: for washout time constant τ, compound alone: proguanil 30 µM, magnesium 10 mM; for washout τ, compound alone (representative recording) / washout τ, compound + Mg (representative recording): Figure 5; for inhibition of NMDA receptor steady-state currents (in words): 10 µM; for agonist dependence of action: NMDA 30 µM vs 1 mM; for agonist dependence of action / voltage dependence of inhibition (in words): cycloguanil 5 µM, proguanil 10 µM, phenformin 20 µM; for Kd: fit of voltage dependence (+30 to −120 mV) with Equation (2); for δ (fraction of membrane electric field crossed): fit with Equation (2), * = fixed value; for voltage dependence of inhibition (in words): holding potential +30 to −120 mV; for competitive or not competitive inhibition: inhibition compared at 30 µM and 1000 µM NMDA; for % of Inhibition (10 µM) −80 mV: steady-state current, 10 µM compound; for % of trapping in double-pulse protocol / tail currents on coapplication with agonist: cycloguanil 100 µM; for washout of mixture with Mg2+ compared with compound alone: 10 mM Mg2+; for Hill Coeff.: concentration–inhibition curve; for washout τ, compound + Mg (representative recording): with 10 mM Mg2+; for tail currents on coapplication with agonist: proguanil 100 µM, phenformin 300 µM
Protocol: NMDA receptors of these neurons consist mainly of GluN1, GluN2A and/or GluN2B subunits. We initially checked whether 10 µM concentrations of biguanide compounds metformin, phenformin, moroxydine, cycloguanil and proguanil would inhibit these steady-state currents. […] Hill coefficients were 1.0 ± 0.1, 1.1 ± 0.2 and 1.1 ± 0.1 for cycloguanil, proguanil and phenformin, respectively.
All experiments were conducted with approval by the Animal Care and Use Committee of the Sechenov Institute of Evolutionary Physiology and Biochemistry of the Russian Academy of Sciences (protocol 1-13/2023, 26 January 2023). Outbred male Wistar rats (13–18 days old, weighing 25–35 g) were sourced from the IEPHB facility. Maximum efforts were made to minimize the number of animals used and to reduce discomfort.
The rats were decapitated after sevoflurane anaesthetization. The brains were rapidly removed and cooled to 2–4 °C. Transverse hippocampal slices were prepared using a vibratome (Campden Instruments, Loughborough, UK), and single neurons were freed from slices by vibrodissociation. All experiments were performed at room temperature.
The whole-cell patch clamp technique was used to record membrane currents in response to applications of the agonists. Series resistance (<20 MΩ) was compensated by 70–80% and monitored during experiments. Currents were recorded using an EPC-8 amplifier (HEKA Electronics, Lambrecht, Germany), filtered at 5 kHz, sampled and stored on a personal computer. Drugs were applied using an RSC-200 (BioLogic, Seyssinet-Pariset, France) perfusion system under computer control. The extracellular solution contained (in mM) NaCl 143, KCl 5, CaCl2 2.5, D-glucose 18, and HEPES 10 (pH adjusted to 7.4 with […]). The pipette solution contained (in mM) CsF 100, CsCl 40, NaCl 5, CaCl2 0.5, EGTA 5, and HEPES 10 (pH adjusted to 7.2 with CsOH). Proguanil (HY-B0806), cycloguanil (HY-12784), phenformin hydrochloride (HY-16397A), metformin hydrochloride (HY-17471A), moroxydine hydrochloride (HY-B0420A) and ifenprodil tartrate (HY-12882A) were obtained from MedChemExpress (Monmouth Junction, NJ, USA). Other reagents were purchased from MedChemExpress (Monmouth Junction, NJ, USA), Sigma (St. Louis, MO, USA) or Tocris Bioscience (Bristol, UK).
Experiments were performed on pyramidal neurons from the CA1 area of the hippocampus. Unless otherwise specified, NMDA receptors were activated with 100 µM NMDA and 10 µM glycine. The percentage of steady-state current blockage by various drug concentrations was measured at holding voltages of either −80 or −30 mV. Transient processes lasting more than 20 ms were modeled using single or double exponential functions. In the case of double exponential fitting, the weighted time constant was employed.
The voltage dependence of the compounds’ action was analyzed using the classical Woodhull model with the voltage-independent component addition. According to the Woodhull model of an impermeable blocker, the voltage dependence of steady-state blockade is defined by Equation (1):(1) B=100/(1+Kb/C×exp〖Fzδ/RTV〗) where V is voltage; B is the level of the block (%); C is the concentration of the drug; z is the molecular charge; and R, F and T have their standard meanings. Kb is the affinity of a drug for the channel, and δ is the electrical depth of the binding site. The δ value reflects the fraction of membrane electric field that the charged blocking molecule crosses on its pathway between the external media and the binding site in the channel.
Our experimental data were not well fitted by the abovementioned equation, presumably because of the presence of a voltage-independent component. Thus, we used an Equation (2), taking it into account, assuming that the binding to the deep and superficial site is independent:(2) B=100−100/(1+C/(Kvd×exp〖Fzδ/RTV〗)+C/Kvi+(C×C)/(Kvd×exp〖Fzδ/RTV〗×Kvi)) […]

[2] = test system: NMDA receptors; design: method as in PMID 12009768; settings: acute phenformin treatment, cited from earlier work
[3] = target: NMDA receptors; settings: −30 mV in the presence of physiological magnesium concentration; read-out: IC50 of memantine; cited from earlier work
[4] = −80 mV, Mg 10 mM, Prog 30 µM, Phen 50 µM
[5] = read-out: Kvd (affinity for the deep site in the channel pore)
[6] = read-out: Kvi (affinity for the superficial, voltage-independent site)
[7] = 100 µM NMDA + 10 µM glycine, −80 mV, no Mg2+
[8] = −30 mV holding voltage, 1 mM Mg2+, read-out: IC50 at −30 mV in the presence of 1 mM Mg2+
[9] = −30 mV holding voltage, no Mg2+, read-out: IC50 at −30 mV in the absence of Mg2+
[10] = −80 mV holding voltage, no Mg2+, 100 µM NMDA + 10 µM glycine, read-out: IC50, µM −80 mV
[11] = −80 mV, Cyclog 10 µM, Ifen 10 µM

Compound | washout τ, compound alone (representative recording) [1, 4] [ms] | mechanism of NMDA receptor inhibition [1] | inhibition of NMDA receptor steady-state currents (in words) ([1]; −80 mV) | agonist dependence of action [1] | Kd [1, 5] [µM] | Kd [1, 6] [µM] | δ (fraction of membrane electric field crossed) [1] | voltage dependence of inhibition (in words) [1] | competitive or not competitive inhibition [1] | % of Inhibition (10 µM) −80 mV [1, 7] | effect of 1 mM Mg2+ on activity at −30 mV ([1]; −30 mV holding voltage) | IC50 [1, 8] [µM] | IC50 [1, 9] [µM] | overshoots on washout in the presence of agonists ([1]; −80 mV) | IC50 [1, 10] [µM] | % of trapping in double-pulse protocol ([1]; −80 mV holding voltage) [%] | washout of mixture with Mg2+ compared with compound alone ([1]; −80 mV) | Hill Coeff. ([1]; −80 mV) | washout τ, compound + Mg (representative recording) ([1]; −80 mV) [ms] | tail currents on coapplication with agonist ([1]; −80 mV) | also measured
[Mg+2] [magnesium] | 30 |  |  |  |  |  |  |  |  |  |  |  |  |  |  |  |  |  |  |  | washout time constant τ, compound alone ([1]; −80 mV, mean ± SD): 30 ± 16 ms
[H]/N=C(/N)N/C(=N/[H])NCCc1ccccc1 [Phenformin, phenformin] | 180 | allosteric inhibitors | significant inhibition | more active in conditions of higher agonist concentration | > 500 | 22 ± 2 | 0.7 * | mostly voltage-independently with a small voltage-dependent component | not competitive | 44 ± 2 (n = 5) % | not affected | 41 ± 6 | 36 ± 5 | did not demonstrate overshoots | 13 ± 1 | < 5 | significantly faster | 1.1 ± 0.1 | 50 | tail current absence | effect on NMDA-induced whole-cell current ([2]; 1 µM): did not affect; effect on calcium responses to NMDA [2]: did not alter
CC1(C)N=C(N)N=C(N)N1c1ccc(Cl)cc1 [Cycloguanil, cycloguanil] |  | voltage-dependent trapping channel blocker | significant inhibition | agonist-independent | 55 ± 11 | > 500 | 0.7 ± 0.1 | clearly voltage-dependent | not competitive | 76 ± 5 (n = 4) % | attenuated | 34 ± 10 | 20 ± 5 | did not demonstrate overshoots | 3.4 ± 0.6 | 68 ± 11 | significantly faster | 1.0 ± 0.1 | 60 | tail current absence | washout τ, compound alone (representative recording) [1, 11]: 3000 ms
CC(C(O)c1ccc(O)cc1)N1CCC(Cc2ccccc2)CC1 (stereo not drawn) [ifenprodil] |  |  |  |  |  |  |  |  |  |  |  |  |  |  |  |  | does not affect |  | 28000 |  | washout τ, compound alone (representative recording) [1, 11]: 28000 ms
CC12CC3CC(C)(C1)CC(N)(C3)C2 [memantine] |  |  |  |  |  |  |  |  |  |  |  |  |  |  |  |  |  |  |  |  | IC50 [3]: 6.4 ± 0.5 µM
[H]/N=C(\N/C(=N/[H])Nc1ccc(Cl)cc1)NC(C)C [Proguanil, proguanil] | 550 | allosteric inhibitors | significant inhibition | more active in conditions of higher agonist concentration | > 500 | 14 ± 1 | 0.7 * | mostly voltage-independently with a small voltage-dependent component | not competitive | 51 ± 6 (n = 5) % | not affected | 17 ± 3 | 13 ± 3 | did not demonstrate overshoots | 9 ± 2.2 | < 5 | significantly faster | 1.1 ± 0.2 | 75 | tail current absence | activity lower than that of memantine (fold) ([1]; −30 mV, 1 mM Mg2+, compared with memantine IC50 of ref 40): approximately three-fold; washout time constant τ, mixture with Mg2+ ([1]; −80 mV, mean ± SD, proguanil 30 µM + 10 mM Mg2+): 76 ± 32 ms; washout time constant τ, compound alone ([1]; −80 mV, mean ± SD): 470 ± 120 ms
N=C(N)/N=C(\N)N1CCOCC1 [Moroxydine, moroxydine] |  |  | practically ineffective |  |  |  |  |  |  | 5 ± 4 (n = 4) % |  |  |  |  |  |  |  |  |  |  | 
CN(C)C(=N)N=C(N)N [Metformin, metformin] |  |  | practically ineffective |  |  |  |  |  |  | 6 ± 5 (n = 4) % |  |  |  |  |  |  |  |  |  |  | 
